The record followed here is ChEMBL document CHEMBL4699584, “Bioassay-Directed Isolation of Antibacterial Metabolites from an Arthropod-Derived Penicillium chrysogenum” (2020).

Molecules are shown by their SMILES.

Format in all cases: functional
One assay concerns Enterococcus faecalis. Briefly: Antibacterial activity against Enterococcus faecalis assessed as reduction in microbial growth by broth microdilution method.
For another assay, the system named is Escherichia coli. Briefly: Antibacterial activity against ESBL producing Escherichia coli assessed as reduction in microbial growth by broth microdilution method. In general terms: In broth dilution the organism is exposed to a series of concentrations in liquid medium.
The subject of the next assay is Staphylococcus aureus. Briefly: Antibacterial activity against methicillin-resistant Staphylococcus aureus assessed as reduction in microbial growth by broth microdilution method.

In the case of `C[C@H]1[C@@H]2O[C@@H]2C(=O)[C@]2(C)CC[C@H]3[C@H]4[C@](C)(CC[C@]4(C)C(=O)O)C[C@]132`, the MIC (commonly the smallest concentration in the dilution series that meets the test's criterion for growth inhibition) in the assay on Enterococcus faecalis was determined as 32 µg/mL; in the assay with Escherichia coli, 32 µg/mL; in the assay on Staphylococcus aureus it was 4 µg/mL.

For the molecule `C[C@H]1C=CC(=O)[C@]2(C)CC[C@H]3[C@@H]4C(CO)(CO)CC[C@]4(C)C[C@]132`, the MIC with Enterococcus faecalis was 32 µg/mL; in the assay on Escherichia coli it was 32 µg/mL; in the assay on Staphylococcus aureus, 2 µg/mL.
